Values joined by “and” are separate entries in the source; they are usually repeats but may differ in a detail not shown here. Equal entries are not always repeated.
Columns and labels:
[1] = system: Dirofilaria immitis; experiment: D. immitis L3 infection of NSG mice (FR3 Missouri strain or strain not stated), treatment, recovery and count of worms at necropsy; assay type: in vivo; details: for % Rec / Survival / % Rec (percent of the original 50 Di recovered) / Survival (number of Di recovered from the mouse): individual mouse; for % Rec (percent of the original 50 Di recovered) / Survival (number of Di recovered from the mouse): 1 mg/kg
[2] = system: Dirofilaria immitis (Merial worms, UC strain); experiment: D. immitis L3 infection of NSG mice with Merial worms / UC strain, treatment, recovery and count of worms; assay type: in vivo
[3] = system: Strongyloides stercoralis; experiment: Strongyloides stercoralis L3 infection of NSG mice with or without MPA, treatment, counts of adult worms, L1 and L3; details: 6 weeks post-injection; for Adult S. stercoralis recovery counts (individual mice) / Adult S. stercoralis recovery counts, mean / L1 S. stercoralis recovery counts (individual mice) / L1 S. stercoralis recovery counts, mean / L3 S. stercoralis recovery counts (individual mice) / L3 S. stercoralis recovery counts, mean: 5000 L3 s.c.
Excerpt: NSG mice infected by subcutaneous injection with 5000 S. stercoralis L3 larvae, either with or without MPA. […] Adult worms, L1 larvae, or L3 larvae were counted in the mice at 6 weeks post-injection.

[4] = NSG mice, 50 Di L3, 1x (1 mg/kg) at Day 30, recovery Days 41 to 43
[5] = NSG mice, 50 Di L3, 2x (1 mg/kg) at Days 1 and 30, recovery Days 41 to 43
[6] = NSG mice, 50 Di L3, 3x (1 mg/kg) at Days 1, 15, and 30, recovery Days 41 to 43
[7] = NSG mice, 50 Di L3 Day 0, 1 mg/kg EMO or 8800 on Days 30 and 60, recovery Days 83 and 84
[8] = NSG mice, 50 Di L3 Day 0, 1 mg/kg on Day 30, recovery Days 41 to 43
[9] = Table 9, NSG mice, 50 Di L3, 1 mg/kg on Days 1, 15, and 30, recovery Days 41 to 43
[10] = Table 9, group mean, NSG mice, 50 Di L3, 1 mg/kg on Days 1, 15, and 30, recovery Days 41 to 43
[11] = Table 11, NSG mice, 50 Di L3, 5 mg/kg on Days 1, 15, and 30, recovery Days 41 to 42
[12] = Table 11, group mean, NSG mice, 50 Di L3, 5 mg/kg on Days 1, 15, and 30, recovery Days 41 to 42
[13] = group mean, NSG mice, 50 Di L3, 1x (1 mg/kg) at Day 30, recovery Days 41 to 43
[14] = group mean, NSG mice, 50 Di L3 Day 0, 1 mg/kg EMO or 8800 on Days 30 and 60, recovery Days 83 and 84
[15] = group mean, NSG mice, 50 Di L3 Day 0, 1 mg/kg on Day 30, recovery Days 41 to 43
[16] = EMO 1 mg/kg Days 1, 15, 30, 50 Di L3 (UC Strain) per NSG mouse, recovery Days 41 to 43, group mean
[17] = EMO 1 mg/kg Days 1, 15, 30, 50 Di L3 (UC Strain) per NSG mouse, recovery Days 41 to 43, individual mice
[18] = group mean, NSG mice, 50 Di L3 Merial worms, 1 mg/kg on Days 1, 15, and 30, recovery Days 41 to 43
[19] = group mean, NSG mice, 50 Di L3 Merial worms, high dose 5 mg/kg on Days 1, 15, and 30, recovery Days 41 to 43
[20] = group mean, NSG mice, 50 Di L3 UC strain, High Dose 5 mg/kg on Days 1, 15, and 30, recovery Days 41 and 42
[21] = individual mouse, NSG mice, 50 Di L3 Merial worms, 1 mg/kg on Days 1, 15, and 30, recovery Days 41 to 43, 1 mg/kg
[22] = individual mouse, NSG mice, 50 Di L3 Merial worms, high dose 5 mg/kg on Days 1, 15, and 30, recovery Days 41 to 43, 5 mg/kg
[23] = individual mouse, NSG mice, 50 Di L3 UC strain, High Dose 5 mg/kg on Days 1, 15, and 30, recovery Days 41 and 42, 5 mg/kg
[24] = EMO Control: 2.5 mg/kg EMO days 1, 15, 30, without MPA
[25] = EMO/MPA: 2.5 mg/kg EMO days 1, 15, 30, with MPA (hyperinfection)

CC(C)C[C@H]1C(=O)O[C@H](Cc2ccc(N3CCOCC3)cc2)C(=O)N(C)[C@@H](CC(C)C)C(=O)O[C@H](C)C(=O)N(C)[C@@H](CC(C)C)C(=O)O[C@H](Cc2ccc(N3CCOCC3)cc2)C(=O)N(C)[C@@H](CC(C)C)C(=O)O[C@H](C)C(=O)N1C [EMO, emodepside]
HW parasite load (normalized percent larva recovery, FIG. 2) ([1]; NSG mice dosed orally with 1 mg/kg at Days 1, 15, and 30 post-infection, day 42/6 weeks): significantly reduced HW parasite load | % Red [1, 4]: 0% | % Red [1, 5]: 15% | % Red [1, 6]: 50% | % Red [1, 7]: 86% | % Red (percent reduction in percent of Di recovered compared to control) [1, 8]: 30% | % Red [1, 9]: 33% | Mean % Rec [1, 10]: 22% | Mean Survival [1, 10]: 11 | % Rec [1, 9]: 26% and 24% (2×) and 16% (2×) and 20% and 22% | Survival [1, 9]: 13 and 12 (2×) and 8 (2×) and 10 and 11 | % Red [1, 11]: 0% | Mean % Rec [1, 12]: 26% | Mean Survival [1, 12]: 13 | % Rec [1, 11]: 22% (2×) and 28% and 36% and 34% and 14% | Survival [1, 11]: 11 (2×) and 14 and 18 and 17 and 7 | Mean % Rec [1, 13]: 39% | Mean Survival [1, 13]: 19 | Mean % Rec ([1]; group mean, NSG mice, 50 Di L3, 2x (1 mg/kg) at Days 1 and 30, recovery Days 41 to 43): 29% | Mean % Rec ([1]; group mean, NSG mice, 50 Di L3, 3x (1 mg/kg) at Days 1, 15, and 30, recovery Days 41 to 43): 17% | Mean % Rec [1, 14]: 2% | Mean Survival [1, 14]: 1 | Mean % Rec [1, 15]: 28% | Mean Survival [1, 15]: 14 | Mean Survival ([1]; in vivo): 14 and 9 | % Rec [1, 4]: 36% and 28% (2×) and 46% (2×) and 42% and 44% | Survival [1, 4]: 18 and 14 (2×) and 23 (2×) and 21 and 22 | % Rec [1, 5]: 28% and 26% (3×) and 30% and 42% and 22% | Survival [1, 5]: 14 and 13 (3×) and 15 and 21 and 11 | % Rec [1, 6]: 28% (2×) and 14% and 22% and 4% and 6% and 20% | Survival [1, 6]: 14 (2×) and 7 and 11 and 2 and 3 and 10 | % Rec (percent of the original 50 Di recovered) [1, 7]: 2% (3×) and 0% (3×) and 6% (2×) | Survival (number of Di recovered from the mouse) [1, 7]: 1 (3×) and 0 (3×) and 3 (2×) | % Rec (percent of the original 50 Di recovered) [1, 8]: 24% and 30% (2×) and 32% and 28% and 26% | Survival (number of Di recovered from the mouse) [1, 8]: 12 and 15 (2×) and 16 and 14 and 13 | % Rec, Mean [2, 16]: 24% | Survival, Mean [2, 16]: 12 | % Rec [2, 17]: 18% (2×) and 26% and 30% (2×) and 12% and 36% | Survival [2, 17]: 9 (2×) and 13 and 15 (2×) and 6 and 18 | % Red ([2]; NSG mice, 50 Di L3 Merial worms, 1 mg/kg on Days 1, 15, and 30, recovery Days 41 to 43): 35% | % Red ([2]; NSG mice, 50 Di L3 Merial worms, high dose 5 mg/kg on Days 1, 15, and 30, recovery Days 41 to 43): 0% | % Red ([2]; NSG mice, 50 Di L3 UC strain, High Dose 5 mg/kg on Days 1, 15, and 30, recovery Days 41 and 42): 47% | Mean % Rec [2, 18]: 22% | Mean Survival [2, 18]: 11 | Mean % Rec [2, 19]: 51% | Mean Survival [2, 19]: 25 | Mean % Rec [2, 20]: 19% | Mean Survival [2, 20]: 10 | % Red ([2]; in vivo): 37% | % Rec [2, 21]: 14% and 26% and 24% (2×) and 16% and 20% and 32% and 22% | Survival [2, 21]: 7 and 13 and 12 (2×) and 8 and 10 and 16 and 11 | % Rec [2, 22]: 52% and 68% and 48% (4×) and 56% and 36% | Survival [2, 22]: 26 and 34 and 24 (4×) and 28 and 18 | % Rec [2, 23]: 20% (3×) and 22% (2×) and 18% and 14% | Survival [2, 23]: 10 (3×) and 11 (2×) and 9 and 7 | Adult S. stercoralis recovery counts (individual mice) [3, 24]: 0 (4×) and 1 | Adult S. stercoralis recovery counts, mean [3, 24]: 0.2 | L1 S. stercoralis recovery counts (individual mice) [3, 24]: 0 | L1 S. stercoralis recovery counts, mean [3, 24]: 0 | L3 S. stercoralis recovery counts (individual mice) [3, 24]: 5 (2×) and 8 and 0 and 1 | L3 S. stercoralis recovery counts, mean [3, 24]: 4 | Adult S. stercoralis recovery counts (individual mice) [3, 25]: 0 | Adult S. stercoralis recovery counts, mean [3, 25]: 0 | L1 S. stercoralis recovery counts (individual mice) [3, 25]: 0 | L1 S. stercoralis recovery counts, mean [3, 25]: 0 | L3 S. stercoralis recovery counts (individual mice) [3, 25]: 4 and 123 and 228 and 102 and 130 and 39 and 18 | L3 S. stercoralis recovery counts, mean [3, 25]: 92 | Circulating L3 ([3]; NSG mice, 5000 S. stercoralis L3 SC, with or without MPA, 2.5 mg/kg on days 1, 15, and 30): reduced the circulating L3
